According to article PMC7312527 (International Journal of Molecular Sciences, 2020):
Values joined by “and” are separate entries in the source; they are usually repeats but may differ in a detail not shown here. Equal entries are not always repeated.

Legend:
[1] = molecular target: BuChE from equine serum (Equus caballus, UniProt P81908); test: biochemical; conditions: for IC50: means ± SD of three independent experiments, read-out: EqBuChE IC50 ± SD; for Selectivity for BuChE: IC50(AChE)/IC50(BuChE)
BuChE from equine serum, sequence (P81908 whole entry): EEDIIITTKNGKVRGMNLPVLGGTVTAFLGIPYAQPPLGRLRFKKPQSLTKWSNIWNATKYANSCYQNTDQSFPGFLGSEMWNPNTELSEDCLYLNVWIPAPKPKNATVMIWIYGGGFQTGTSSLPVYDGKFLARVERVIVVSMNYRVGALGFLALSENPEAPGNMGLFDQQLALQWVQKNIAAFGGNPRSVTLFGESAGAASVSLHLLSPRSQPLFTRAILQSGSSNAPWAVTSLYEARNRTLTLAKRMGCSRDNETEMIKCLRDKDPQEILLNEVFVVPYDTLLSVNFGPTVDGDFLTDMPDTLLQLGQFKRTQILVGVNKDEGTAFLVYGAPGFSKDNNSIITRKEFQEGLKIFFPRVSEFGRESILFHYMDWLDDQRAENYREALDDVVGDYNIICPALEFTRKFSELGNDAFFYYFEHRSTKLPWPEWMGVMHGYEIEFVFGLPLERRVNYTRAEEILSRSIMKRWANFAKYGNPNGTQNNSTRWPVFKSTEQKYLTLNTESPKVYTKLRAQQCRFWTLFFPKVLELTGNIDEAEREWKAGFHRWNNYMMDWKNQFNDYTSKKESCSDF

[2] = molecular target: AChE from electric eel (Electrophorus electricus, UniProt O42275); test: biochemical; conditions: for IC50: means ± SD of three independent experiments, read-out: EeAChE IC50 ± SD; for Selectivity for AChE: IC50 (BuChE)/IC50(AChE)
AChE from electric eel, sequence (O42275 24-633): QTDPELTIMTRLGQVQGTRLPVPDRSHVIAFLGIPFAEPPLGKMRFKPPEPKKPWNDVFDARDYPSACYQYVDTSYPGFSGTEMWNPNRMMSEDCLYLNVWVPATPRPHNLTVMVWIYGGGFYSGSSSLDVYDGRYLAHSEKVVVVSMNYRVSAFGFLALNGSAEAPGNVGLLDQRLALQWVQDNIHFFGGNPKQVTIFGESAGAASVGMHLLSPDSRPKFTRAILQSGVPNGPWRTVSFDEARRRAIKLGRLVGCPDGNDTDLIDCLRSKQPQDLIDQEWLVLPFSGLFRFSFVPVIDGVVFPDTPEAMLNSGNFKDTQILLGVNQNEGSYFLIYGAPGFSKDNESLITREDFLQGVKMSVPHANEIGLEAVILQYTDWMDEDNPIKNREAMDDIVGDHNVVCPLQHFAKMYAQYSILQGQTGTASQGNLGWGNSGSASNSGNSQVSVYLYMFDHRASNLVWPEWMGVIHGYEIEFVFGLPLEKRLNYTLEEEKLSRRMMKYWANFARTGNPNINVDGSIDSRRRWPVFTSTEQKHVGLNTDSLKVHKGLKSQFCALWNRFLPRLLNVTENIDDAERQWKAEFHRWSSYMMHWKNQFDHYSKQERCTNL

[3] = Experimental Properties; cited from earlier work
[4] = Experimental Properties; cited from earlier work; remark: listed apart in the source
[5] = system: SH-SY5Y cells; test: Neuroprotection against rotenone/oligomycin A, co-incubation (MTT); assay type: cell-based, human; conditions: R/O mixture
[6] = system: SH-SY5Y cells; test: Neuroprotection against rotenone/oligomycin A, pre-incubation (MTT); assay type: cell-based, human; conditions: R/O mixture, 0.001 µM
[7] = system: SH-SY5Y cells; test: Neuroprotection against oxidative stress induced by H2O2 (MTT); assay type: cell-based, human; conditions: H2O2 100 µM
[8] = molecular target: T1, hyaluronidase (Bos taurus, UniProt Q2YDK3); test: Hyaluronidase (HYAL) inhibition test (turbidimetry); assay type: biochemical
T1 sequence (Q2YDK3 36-553): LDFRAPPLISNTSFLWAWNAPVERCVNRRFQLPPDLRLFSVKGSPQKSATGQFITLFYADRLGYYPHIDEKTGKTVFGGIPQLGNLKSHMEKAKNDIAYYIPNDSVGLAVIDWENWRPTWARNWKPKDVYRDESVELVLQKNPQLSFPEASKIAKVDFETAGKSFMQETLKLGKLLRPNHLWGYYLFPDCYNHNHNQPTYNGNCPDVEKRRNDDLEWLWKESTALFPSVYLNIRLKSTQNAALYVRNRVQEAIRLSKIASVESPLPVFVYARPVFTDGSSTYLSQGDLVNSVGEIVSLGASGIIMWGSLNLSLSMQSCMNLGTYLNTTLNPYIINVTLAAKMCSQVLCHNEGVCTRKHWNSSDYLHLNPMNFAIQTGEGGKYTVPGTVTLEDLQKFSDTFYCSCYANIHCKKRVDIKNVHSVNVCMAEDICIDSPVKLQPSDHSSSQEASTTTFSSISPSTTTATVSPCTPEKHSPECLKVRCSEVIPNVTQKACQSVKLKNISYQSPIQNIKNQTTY
Experimental: The hyaluronidase inhibition assay was set by turbidimetry according to USP XXII-NF XVII, modified by Piwowarski, to the 96-wells plates test. Tested compound solutions were freshly prepared before the assay. The protocol started with the addition of 20 µL of the tested compound in monosodium phosphate buffer and 40 µL of hyaluronidase solution (22.5 U/mL, Sigma Aldrich) to each well. The plate was kept in the dark (10 min, 37 °C). In the next step, 40 µL of hyaluronic acid solution (0.03%, Sigma Aldrich) in monosodium phosphate buffer was added to the wells and the plate was incubated again (45 min, 37 °C). Finally, 300 µL of bovine serum albumin (0.1%, Serva) in sodium acetate buffer was added to the wells and the mixture was kept at room temperature for 10 min. The assay was carried out in triplicate. Changes in turbidity were measured by a microplate reader (BioTek, Winooski, VT, USA) at 600 nm. Heparin (WZF, Polfa, Warszawa, Poland) was the positive control. The inhibitory activity of the tested compound was calculated from the Equation (1):(1) % inhibition=100x1−AHA−AAN/AHA−AHYAL where AHA is the absorbance of solution without the enzyme (positive control), AHYAL is the absorbance of solution without the tested compound (negative control), and AAN is the absorbance of solution with the tested compound.

[9] = system: Human hepatic stellate cells (HSCs); test: in vitro; assay type: cell-based; conditions: HSCs, 24 h
Experimental: (§1) Human hepatic stellate cells (HSCs, Sciencell) were cultured in the Stellate Cell Medium (Sciencell) with 1% Stellate Cell Growth Supplement, 2% fetal bovine serum (FBS), and 1% penicillin/streptomycin solution (Sciencell). Cells were kept in the incubator (37 °C, 5% CO2). At the beginning of the experiment, cells were seeded in the 96-well plates at a density of 5 × 10^3 cells per well and incubated in the incubator for 24 h. After the incubation period, medium was removed and HSCs were exposed to 100 µL of the compound solutions over a range of concentrations (10–0.1 µM) or nothing but culture medium (blank control). Cells were further incubated for 24 h. At the end, medium was removed, cells were washed with PBS, and 50 µL of the MTT solution (0.75 mg/mL) was added to the cells. Plates were kept in the dark for 2 h at 37 °C. Finally, the MTT solution was removed and 100 µL of DMSO was added to each well. Plates with DMSO were kept at room temperature for 10 min. After this time, 5 µL of Sorensen Buffer was added to each well. Plates were swayed and the absorbance was measured at a wavelength of 570 nm by a microplate reader (Synergy H1, BioTek). The cell viability was expressed as a percentage of the control values (blank control).

[10] = in vitro; assay type: cell-based; conditions: human
Experimental: as §1

| Compound | IC50 [1] | IC50 [2] | Selectivity for BuChE [1] | Selectivity for AChE [2] | further results |
| --- | --- | --- | --- | --- | --- |
| O=C(NCCCCCNc1c2c(nc3ccccc13)CCCC2)c1cc(Cl)cc(Cl)c1 [Compound 3d] | > 20000 nM | > 12000 nM and 12400 nM |  |  |  |
| CSc1ccc2c(c1)N(CCC1CCCCN1C)c1ccccc1S2.Cl (centres unmarked) [Thiorydazine HCl] |  |  |  |  | pKa [3]: 9.5 [54]; logP [4]: 5.9 |
| O=C(NCCCCCCNc1c2c(nc3ccccc13)CCCC2)c1cc(Cl)cc(Cl)c1 [Compound 3e] | > 20000 nM | > 20000 nM |  |  |  |
| Cc1c(C)c2c(c(C)c1O)CCC(C)(C(=O)O)O2 (centres unmarked) [Trolox, reference compound] |  |  |  |  | neuroprotection ([5]; 0.001 µM): 5.60%; neuroprotection ([5]; 0.01 µM): 4.67%; neuroprotection [6]: 2.15%; neuroprotection ([7]; compound 0.01 µM): 77.16%; neuroprotection ([7]; compound 0.1 µM): 91.22%; neuroprotection ([7]; compound 1 µM): 96.03%; neuroprotection ([7]; compound 10 µM): 95.05% |
| O=C(NCCCCCCCCCNc1c2c(nc3ccccc13)CCCC2)c1cc(Cl)cc(Cl)c1 [Compound 3h] | 324 ± 47 nM | 111 ± 4 nM | 0.343 | 2.914 |  |
| Heparin [positive control] |  |  |  |  | IC50 [8]: 56400 ± 780 nM |
| CC(CN1c2ccccc2Sc2ccccc21)N(C)C.Cl (centres unmarked) [Prometazine HCl] |  |  |  |  | pKa [3]: 9.1 [52] |
| Cl.O=C(NCCNc1c2c(nc3ccccc13)CCCC2)c1cc(Cl)cc(Cl)c1 [Compound 3a] | 140 ± 12 nM | 690 ± 108 nM | 4.935 | 0.203 |  |
| O=C(NCCCCCCCNc1c2c(nc3ccccc13)CCCC2)c1cc(Cl)cc(Cl)c1 [Compound 3f] | 33 ± 6 nM | 115 ± 12 nM | 3.457 | 0.289 |  |
| O=C(NCCCCCCCCNc1c2c(nc3ccccc13)CCCC2)c1cc(Cl)cc(Cl)c1 [Compound 3g] | 607 ± 20 nM | 958 ± 36 nM | 1.577 | 0.634 |  |
| O=C(NCCCNc1c2c(nc3ccccc13)CCCC2)c1cc(Cl)cc(Cl)c1 [Compound 3b] | 24 ± 1 nM | 139 ± 5 nM | 5.756 | 0.174 |  |
| Nc1c2c(nc3ccccc13)CCCC2 [Tacrine, reference compound] |  |  |  |  | hepatotoxicity (MTT; cell viability as percentage of control) ([9]; 0.1 µM): 100.67% ± 1.03%; hepatotoxicity (MTT; cell viability as percentage of control) ([9]; 1 µM): 99.48% ± 0.74%; viability at 24 h, 10 µM [10]: 90.3% |
